Source: patent publication US12161753B2, “Sustained release biodegradable intracanalicular inserts comprising a hydrogel and an active agent” (OCULAR THERAPEUTIX, INC., priority 2020, dated 2024)
“And” between values parts separate entries of the source, which are not always exact repeats. Identical values can stand only once. Like-named read-outs stand apart in the source and are kept apart here.

Legend:
[1] = Particle size of cyclosporine by laser diffraction (effect of surfactants); assay type: physicochemical; conditions: no surfactant
immunomodulation = conditions: Tang-Liu and Acheampong, Clin. Pharmacokinet. 44(3); cited from earlier work
[2] = for Cyclosporine per insert (left in removed insert), OD: beagles, initial dose 671±13 μg
[3] = Example 3.2 proof-of-concept PK study: tear fluid concentration and drug released from inserts; assay type: in vivo, beagle dogs; conditions: beagle; insert 0.44 mg cyclosporine, 4a20K SG/trilysine; over 32 days
Text: Inserts were removed at 32 days to determine the amount of remaining drug compared to the administered dose.

[4] = beagle, insert 0.7 mg cyclosporine, 4a20K SAZ/trilysine

**Q.** For CC=CCC(C)C(O)C1C(=O)NC(CC)C(=O)N(C)CC(=O)N(C)C(CC(C)C)C(=O)NC(C(C)C)C(=O)N(C)C(CC(C)C)C(=O)NC(C)C(=O)NC(C)C(=O)N(C)C(CC(C)C)C(=O)N(C)C(CC(C)C)C(=O)N(C)C(C(C)C)C(=O)N1C (centres unmarked) [Cyclosporine, 30-ethyl-33-(1-hydroxy-2-methylhex-4-enyl)-1,4,7,10,12,15,19,25,28-nonamethyl-6,9,18,24-tetrakis(2-methylpropyl)-3,21-di(propan-2-yl)-1,4,7,10,13,16,19,22,25,28,31-undecazacyclotritriacontane-2,5,8,11,14,17,20,23,26,29,32-undecone], which “D10 [Average]” value ([1]; in DIW) is on record?
**A.** Its value is 4 μm.

**Q.** And the “D10 [Average]” value ([1]; in PBS)?
**A.** Its value is 4.1 μm.

**Q.** What about the “Cyclosporine concentration considered to be required for immunomodulation” value (immunomodulation) of the same compound?
**A.** Its value is 0.236 µg/mL.

**Q.** What about the Released amount ([2]; beagle, insert 0.67 mg cyclosporine, 4a20K SG/trilysine, 28 days) of the same compound?
**A.** The Released amount was 3.4 µg.

**Q.** What about the Released amount ([2]; beagle, insert 0.67 mg cyclosporine, 4a20K SG/trilysine, 50 days) of the same compound?
**A.** Its Released amount is 3.5 µg.

**Q.** What about the “Daily estimated delivered dose” value ([2]; beagle, insert 0.67 mg cyclosporine, 4a20K SG/trilysine, over 28 and 50 days) of the same compound?
**A.** Its value is “approximately 3.5 μg/day”.

**Q.** What about the “Cyclosporine per insert (left in removed insert), OD” value ([2]; insert removed at Day 28, single inserts) of the same compound?
**A.** The value was 596 µg.

**Q.** And the “Cyclosporine per insert (left in removed insert), OD” value ([2]; insert removed at Day 50, single inserts)?
**A.** The value was 451 µg and 520 µg and 521 µg.

**Q.** And the “Estimated daily delivered dose” value [3]?
**A.** The value was 6.3 µg/day.

**Q.** What about the “Average amount of cyclosporine released in 6 weeks” value ([4]; inserts removed at 6 weeks) of the same compound?
**A.** The value was 0.37 mg.

**Q.** What about the “Estimated daily delivered dose” value ([4]; over 6 weeks) of the same compound?
**A.** Its value is 8.8 µg/day.
